In article doi:10.1101/2025.10.03.680348v2, “Cathepsin K as a Key Protease in Processing of SARS-CoV-2 Spike Activation Sites and a Target of Dual-Inhibition” (biorxiv, 2025):

Tests used:
[1] = target: T1, hCatL (human Cathepsin L) (Homo sapiens, UniProt P07711); test: fluorogenic inhibition assay, Z-FR-AMC ([…]); assay type: biochemical; conditions: 0.1 M sodium acetate pH 5.5, 2.5 mM DTT, 2.5 mM EDTA, room temperature
T1 construct: gene CTSL; native enzyme from human liver, commercial (Fisher Scientific)
T1 sequence (P07711 114-288): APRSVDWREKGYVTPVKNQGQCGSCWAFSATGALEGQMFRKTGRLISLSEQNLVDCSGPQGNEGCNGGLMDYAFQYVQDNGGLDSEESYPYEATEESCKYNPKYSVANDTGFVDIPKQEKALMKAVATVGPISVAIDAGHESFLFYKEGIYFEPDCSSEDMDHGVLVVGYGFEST
T1 sequence (P07711 292-333): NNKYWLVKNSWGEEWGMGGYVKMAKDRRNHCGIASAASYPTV

[2] = target: T2, hCatB (Human Cathepsin B) (Homo sapiens, UniProt P07858); test: fluorogenic inhibition assay, Z-FR-AMC ([…]); assay type: biochemical; conditions: 0.1 M sodium acetate pH 5.5, 2.5 mM DTT, 2.5 mM EDTA, room temperature
T2 construct: gene CTSB; recombinant human enzyme, gift of J. Mort

For `CC(C)(C)[C@H](NC(=O)C(F)(F)F)C(=O)N1C[C@H]2[C@@H]([C@H]1C(=O)N[C@H](C#N)C[C@@H]1CCNC1=O)C2(C)C` [Nirmatrelvir], the “not inhibited by 10 μM” value [1] was > 10 µM and the “not inhibited by 10 μM” value [2] was > 10 µM.
